In patent US20240150293A1, “SPIROCYCLOHEXANE DERIVATIVES, PHARMACEUTICAL COMPOSITIONS CONTAINING THEM AND THEIR USES AS ANTI-APOPTOTIC INHIBITORS” (LES LABORATOIRES SERVIER, priority 2021, published 2024):

The compounds below were run against Mcl-1 protein (UniProtKB Q07820) (Homo sapiens (Human), UniProt Q07820) (assay: Inhibition of Mcl-1 by the fluorescence polarisation assay (Example A, Method A)). Details: fluorescence polarization assay.
Assay type: binding
Procedure, shortened: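 Protein (5 nM) and fluorescein-tagged peptide tracer (1 nM) incubated with 11-point compound series for 2 h at room temperature in HEPES/NaCl/Tween 20 buffer, pH 7.4, 5% DMSO. Displacement read as decrease in polarisation; IC50 fitted by 4-parameter logistic, converted to Ki (cKi or eKi).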

Mcl-1 protein, sequence (Q07820 whole entry): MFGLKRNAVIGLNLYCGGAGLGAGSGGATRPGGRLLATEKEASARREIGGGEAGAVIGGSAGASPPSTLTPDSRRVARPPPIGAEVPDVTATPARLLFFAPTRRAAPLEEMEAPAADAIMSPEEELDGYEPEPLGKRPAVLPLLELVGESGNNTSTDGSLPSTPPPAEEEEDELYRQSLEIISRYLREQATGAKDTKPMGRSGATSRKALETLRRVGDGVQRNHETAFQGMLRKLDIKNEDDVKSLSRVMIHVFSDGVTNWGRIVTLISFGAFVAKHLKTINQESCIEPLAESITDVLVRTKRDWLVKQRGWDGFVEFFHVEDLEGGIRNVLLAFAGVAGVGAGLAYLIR

| Ki [nM] | Structure (SMILES) |
| --- | --- |
| 74.3 | O=C(O)[C@]1(Nc2cccc(Cl)c2)CC[C@]2(CC1)C(c1cccc(Oc3ccncc3)c1)=Cc1ccccc12 [Example 377, (1s,4s)-4-(3-chloroanilino)-2′-{3-[(pyridin-4-yl)oxy]phenyl}spiro[cyclohexane-1,1′-indene]-4-carboxylic acid] |
| 134 | O=C(O)[C@]1(Nc2cccc(Cl)c2)CC[C@@]2(CC1)c1ccccc1CC2CCCCc1ccccc1 (stereo partly shown) [Example 394, (1r,4r)-4-(3-chloroanilino)-2′-(4-phenylbutyl)-2′,3′-dihydrospiro[cyclohexane-1,1′-indene]-4-carboxylic acid] |
| 101 | O=C(O)[C@]1(Nc2cccc(Cl)c2)CC[C@]2(CC1)C(CCOCc1ccccc1)=Cc1ccccc12 [Example 395, (1r,4r)-2′-[2-(benzyloxy)ethyl]-4-(3-chloroanilino)spiro[cyclohexane-1,1′-indene]-4-carboxylic acid] |
| 321 | O=C(O)[C@]1(Nc2cccc(Cl)c2)CC[C@@]2(CC1)c1ccccc1CC2CCOCc1ccccc1 (stereo partly shown) [Example 396, (1r,4r)-2′-[2-(benzyloxy)ethyl]-4-(3-chloroanilino)-2′,3′-dihydrospiro[cyclohexane-1,1′-indene]-4-carboxylic acid] |
| 598 | O=C(O)[C@]1(Nc2cccc(Cl)c2)CC[C@@]2(CC1)c1ccccc1CC2CCCSc1ccccc1 (stereo partly shown) [Example 397, (1r,4r)-4-(3-chloroanilino)-2′-[3-(phenylsulfanyl)propyl]-2′,3′-dihydrospiro[cyclohexane-1,1′-indene]-4-carboxylic acid] |
| 1310 | O=C(O)[C@]1(Nc2cccc(Cl)c2)CC[C@@]2(CC1)c1ccccc1CC2CCCS(=O)(=O)c1ccccc1 (stereo partly shown) [Example 398, (1r,4r)-2′-[3-(benzenesulfonyl)propyl]-4-(3-chloroanilino)-2′,3′-dihydrospiro[cyclohexane-1,1′-indene]-4-carboxylic acid] |
| 299 | O=C(O)[C@]1(Nc2cccc(Cl)c2)CC[C@@]2(CC1)c1ccccc1CC2CCCSc1ccncc1 (stereo partly shown) [Example 399, (1r,4r)-4-(3-chloroanilino)-2′-{3-[(pyridin-4-yl)sulfanyl]propyl}-2′,3′-dihydrospiro[cyclohexane-1,1′-indene]-4-carboxylic acid] |
| 917 | O=C(O)[C@]1(Nc2cccc(Cl)c2)CC[C@@]2(CC1)c1ccccc1CC2OCCCc1ccccc1 (stereo partly shown) [Example 400, (1s,4s)-4-(3-chloroanilino)-2′-(3-phenylpropoxy)-2′,3′-dihydrospiro[cyclohexane-1,1′-indene]-4-carboxylic acid] |
| 320 | Cc1cnccc1CCCOC1Cc2ccccc2[C@]12CC[C@@](Nc1cccc(Cl)c1)(C(=O)O)CC2 (stereo partly shown) [Example 401, (1s,4s)-4-(3-chloroanilino)-2′-[3-(3-methylpyridin-4-yl)propoxy]-2′,3′-dihydrospiro[cyclohexane-1,1′-indene]-4-carboxylic acid] |
| 18800 | O=C(NCCc1ccncc1)C1=Cc2ccccc2[C@]12CC[C@@](Nc1cccc(Cl)c1)(C(=O)O)CC2 [Example 402, (1s,4s)-4-(3-chloroanilino)-2′-{[2-(pyridin-4-yl)ethyl]carbamoyl}spiro[cyclohexane-1,1′-indene]-4-carboxylic acid] |
| 8210 | CN(CCc1ccncc1)C(=O)C1=Cc2ccccc2[C@]12CC[C@@](Nc1cccc(Cl)c1)(C(=O)O)CC2 [Example 403, (1s,4s)-4-(3-chloroanilino)-2′-{methyl[2-(pyridin-4-yl)ethyl]carbamoyl}spiro[cyclohexane-1,1′-indene]-4-carboxylic acid] |
| 550 | O=C(O)[C@]1(Nc2cccc(Cl)c2)CC[C@]2(CC1)C(COCCc1ccccc1F)=Cc1ccccc12 [Example 410, (1s,4s)-4-(3-chloroanilino)-2′-{[2-(2-fluorophenyl)ethoxy]methyl}spiro[cyclohexane-1,1′-indene]-4-carboxylic acid] |
| 583 | Cc1cccc(CCOCC2=Cc3ccccc3[C@]23CC[C@@](Nc2cccc(Cl)c2)(C(=O)O)CC3)c1 [Example 411, (1s,4s)-4-(3-chloroanilino)-2′-{[2-(3-methylphenyl)ethoxy]methyl}spiro[cyclohexane-1,1′-indene]-4-carboxylic acid] |
| 473 | O=C(O)[C@]1(Nc2cccc(Cl)c2)CC[C@]2(CC1)C(COCCc1cccc(F)c1)=Cc1ccccc12 [Example 412, (1s,4s)-4-(3-chloroanilino)-2′-{[2-(3-fluorophenyl)ethoxy]methyl}spiro[cyclohexane-1,1′-indene]-4-carboxylic acid] |
| 704 | O=C(O)[C@]1(Nc2cccc(Cl)c2)CC[C@]2(CC1)C(COCCc1ccc(F)cc1)=Cc1ccccc12 [Example 413, (1s,4s)-4-(3-chloroanilino)-2′-{[2-(4-fluorophenyl)ethoxy]methyl}spiro[cyclohexane-1,1′-indene]-4-carboxylic acid] |
| 312 | COc1ccccc1CCOCC1=Cc2ccccc2[C@]12CC[C@@](Nc1cccc(Cl)c1)(C(=O)O)CC2 [Example 414, (1s,4s)-4-(3-chloroanilino)-2′-{[2-(2-methoxyphenyl)ethoxy]methyl}spiro[cyclohexane-1,1′-indene]-4-carboxylic acid] |

| Ki [nM] | Structure (SMILES) |
| --- | --- |
| 365 | Cc1ccccc1CCOCC1=Cc2ccccc2[C@]12CC[C@@](Nc1cccc(Cl)c1)(C(=O)O)CC2 [Example 415, (1s,4s)-4-(3-chloroanilino)-2′-{[2-(2-methylphenyl)ethoxy]methyl}spiro[cyclohexane-1,1′-indene]-4-carboxylic acid] |
| 623 | Cc1ccc(CCOCC2=Cc3ccccc3[C@]23CC[C@@](Nc2cccc(Cl)c2)(C(=O)O)CC3)cc1 [Example 416, (1s,4s)-4-(3-chloroanilino)-2′-{[2-(4-methylphenyl)ethoxy]methyl}spiro[cyclohexane-1,1′-indene]-4-carboxylic acid] |
| 522 | O=C(O)[C@]1(Nc2cccc(Cl)c2)CC[C@]2(CC1)C(COCCc1cccc(Cl)c1)=Cc1ccccc12 [Example 417, (1s,4s)-4-(3-chloroanilino)-2′-{[2-(3-chlorophenyl)ethoxy]methyl}spiro[cyclohexane-1,1′-indene]-4-carboxylic acid] |
| 648 | COc1cccc(CCOCC2=Cc3ccccc3[C@]23CC[C@@](Nc2cccc(Cl)c2)(C(=O)O)CC3)c1 [Example 418, (1s,4s)-4-(3-chloroanilino)-2′-{[2-(3-methoxyphenyl)ethoxy]methyl}spiro[cyclohexane-1,1′-indene]-4-carboxylic acid] |
| 300 | O=C(O)[C@]1(Nc2cccc(Cl)c2)CC[C@]2(CC1)C(COCCc1ccccc1Cl)=Cc1ccccc12 [Example 419, (1s,4s)-4-(3-chloroanilino)-2′-{[2-(2-chlorophenyl)ethoxy]methyl}spiro[cyclohexane-1,1′-indene]-4-carboxylic acid] |
| 1100 | O=C(O)[C@]1(Nc2cccc(Cl)c2)CC[C@]2(CC1)C(COCCc1ccc(Cl)cc1)=Cc1ccccc12 [Example 420, (1s,4s)-4-(3-chloroanilino)-2′-{[2-(4-chlorophenyl)ethoxy]methyl}spiro[cyclohexane-1,1′-indene]-4-carboxylic acid] |
| 793 | COc1ccc(CCOCC2=Cc3ccccc3[C@]23CC[C@@](Nc2cccc(Cl)c2)(C(=O)O)CC3)cc1 [Example 421, (1s,4s)-4-(3-chloroanilino)-2′-{[2-(4-methoxyphenyl)ethoxy]methyl}spiro[cyclohexane-1,1′-indene]-4-carboxylic acid] |
| 95.9 | O=C(O)[C@]1(Nc2cccc(Cl)c2)CC[C@]2(CC1)C(CCCOc1ccccc1)=Cc1ccccc12 [Example 422, (1r,4r)-4-(3-chloroanilino)-2′-(3-phenoxypropyl)spiro[cyclohexane-1,1′-indene]-4-carboxylic acid] |
| 224 | O=C(O)[C@]1(Nc2cccc(Cl)c2)CC[C@@]2(CC1)c1ccccc1CC2CCCOc1ccccc1 (stereo partly shown) [Example 423, (1r,4r)-4-(3-chloroanilino)-2′-(3-phenoxypropyl)-2′,3′-dihydrospiro[cyclohexane-1,1′-indene]-4-carboxylic acid] |
| 184 | O=C(O)[C@]1(Nc2cccc(Cl)c2)CC[C@@]2(CC1)c1ccccc1CC2CCCOc1ccccc1 (stereo partly shown) [Example 424, (1r,4r)-4-(3-chloroanilino)-2′-(3-phenoxypropyl)-2′,3′-dihydrospiro[cyclohexane-1,1′-indene]-4-carboxylic acid] |
| 477 | O=C(O)[C@]1(Nc2cccc(Cl)c2)CC[C@@]2(CC1)c1ccccc1CC2CCCOc1ccc(F)cc1 (stereo partly shown) [Example 425, (1r,4r)-4-(3-chloroanilino)-2′-[3-(4-fluorophenoxy)propyl]-2′,3′-dihydrospiro[cyclohexane-1,1′-indene]-4-carboxylic acid] |
| 393 | O=C(O)[C@]1(Nc2cccc(Cl)c2)CC[C@@]2(CC1)c1ccccc1CC2CCCOc1ccc2c(c1)OCO2 (stereo partly shown) [Example 428, (1r,4r)-2′-{3-[(2H-1,3-benzodioxol-5-yl)oxy]propyl}-4-(3-chloroanilino)-2′,3′-dihydrospiro[cyclohexane-1,1′-indene]-4-carboxylic acid] |
| 165 | Nc1cc(Cl)c(OCCCC2Cc3ccccc3[C@]23CC[C@@](Nc2cccc(Cl)c2)(C(=O)O)CC3)c(Cl)c1 (stereo partly shown) [Example 429, (1r,4r)-2′-[3-(4-amino-2,6-dichlorophenoxy)propyl]-4-(3-chloroanilino)-2′,3′-dihydrospiro[cyclohexane-1,1′-indene]-4-carboxylic acid] |
| 206 | O=C(O)[C@]1(Nc2cccc(Cl)c2)CC[C@@]2(CC1)c1ccccc1CC2CCCOc1cc(F)cc(Cl)c1 (stereo partly shown) [Example 430, (1r,4r)-4-(3-chloroanilino)-2′-[3-(3-chloro-5-fluorophenoxy)propyl]-2′,3′-dihydrospiro[cyclohexane-1,1′-indene]-4-carboxylic acid] |
| 138 | O=C(O)[C@]1(Nc2cccc(Cl)c2)CC[C@@]2(CC1)c1ccccc1CC2CCCOc1ccccc1Cl (stereo partly shown) [Example 431, (1r,4r)-4-(3-chloroanilino)-2′-[3-(2-chlorophenoxy)propyl]-2′,3′-dihydrospiro[cyclohexane-1,1′-indene]-4-carboxylic acid] |
